Assay results as given in publication PMC3516572, “MiniCD4 Microbicide Prevents HIV Infection of Human Mucosal Explants and Vaginal Transmission of SHIV162P3 in Cynomolgus Macaques” (PLoS Pathogens, 2012).

What was measured:
SHIV162P3 = settings: cited from earlier work
Text: The use of effective therapeutic drugs, such as tenofovir and more recently dapivirine tested in phase III trial, targeting post-entry events in the viral replication cycle (reverse transcription, integration and viral maturation) remains attractive, however the impact of their dual use in prevention and therapy on the potential induction of resistance evolution remains controversial. In contrast drugs that target the initial steps of viral attachment to CD4 and one of two co-receptors (CCR5 or CXCR4) triggering viral fusion with susceptible targets cells (entry inhibitors) are not widel ...

penile tissue explants = test: MTT viability assay on penile tissue explants; assay type: cell-based, human; settings: 24 h at 37°C, then MTT 2 h; M48U1 ten-fold dilutions, highest concentrations tested; nonoxynol-9 at 500 ng/mL; two independent experiments in triplicates
Text: Cervical tissue was obtained from patients undergoing planned therapeutic hysterectomy at St. George's Hospital in London, United Kingdom. Surgically resected specimens of colorectal tissue were collected at St. George's Hospital, London, United Kingdom. Penile tissue (glans) was obtained from individuals undergoing gender reassignment surgery at Charing Cross Hospital. All tissues were collected after signed informed consent was received from all patients and under protocols approved by the Local Research Ethics Committee (National Research Ethic Service NHS). On arrival in the laboratory, resected tissue was cut into 2–3 mm^3 explants comprising both epithelial and stromal tissue or muscularis mucosae, depending on the tissue, as described previously, [22].
Penile tissues and PM-1 T cells were incubated in complete RPMI medium supplemented with ten-fold dilutions of M48U1 for 24 h at 37°C. Nonoxynol-9 microbicide (tested at 500 ng/mL) was employed as cytotoxic reference. […] For tissue, after releasing the formazan in ethanol overnight, cytotoxicity was determined by measuring the optical density of the purple formazan product at 570–690 nm using Synergy HT multi-detection microplate reader. For PM-1 cells, the absorption of the formazan product was determined after lysis of the cells.

PM-1 T cells = test: MTT viability assay on PM-1 T cells; assay type: cell-based; settings: 24 h at 37°C, then MTT 2 h; M48U1 ten-fold dilutions, highest concentrations tested; nonoxynol-9 at 500 ng/mL; two independent experiments in triplicates
Protocol: Penile tissues and PM-1 T cells were incubated in complete RPMI medium supplemented with ten-fold dilutions of M48U1 for 24 h at 37°C. Nonoxynol-9 microbicide (tested at 500 ng/mL) was employed as cytotoxic reference. The compounds were removed and the tissue explants and cells were incubated for 2 h in medium containing 500 µg/mL of 3-(4,5-dimethylthiazol-2-yl)-2,5-diphenyltetrazolium bromide (MTT). For tissue, after releasing the formazan in ethanol overnight, cytotoxicity was determined by measuring the optical density of the purple formazan product at 570–690 nm using Synergy HT multi-detection microplate reader. For PM-1 cells, the absorption of the formazan product was determined after lysis of the cells.

Structure (SMILES) | Protection of NHP from vaginal challenge with SHIV162P3 (SHIV162P3) | Cytotoxicity (MTT) in penile tissue (penile tissue explants) | Cytotoxicity (MTT) in PM-1 T-cell line (PM-1 T cells)
COc1ccnc2[nH]cc(C(=O)C(=O)N3CCN(C(=O)c4ccccc4)C[C@H]3C)c12 [BMS-378806] | could protect NHP | – | –
CCCCCCCCCc1ccc(OCCOCCOCCOCCOCCOCCOCCOCCOCCO)cc1 [nonoxynol-9] | – | significant toxicity | significant toxicity
